According to ChEMBL document CHEMBL2375284, “Novel hybrids of natural isochroman-4-one bearing N-substituted isopropanolamine as potential antihypertensive candidates” (Bioorg Med Chem, 2013):

What was measured:
[1] = test system: Rattus norvegicus; assay: Antihypertensive activity in rat spontaneous hypertensive model assessed as mean arterial blood pressure at 20 mg/kg, po measured at 6 hrs by tail-cuff method (reference value: 155.8 +/- 7.97 mmHg); assay type: functional, Artery
[2] = test system: Rattus norvegicus; assay: Antihypertensive activity in rat spontaneous hypertensive model assessed as diastolic arterial blood pressure at 20 mg/kg, po measured at 2 hrs by tail-cuff method (reference value: 142.9 +/- 18.07 mmHg); assay type: functional, Artery
[3] = test system: Rattus norvegicus; assay: Antihypertensive activity in rat spontaneous hypertensive model assessed as systolic arterial blood pressure at 20 mg/kg, po measured at 8 hrs by tail-cuff method (reference value: 174 +/- 12.1 mmHg); assay type: functional, Artery
[4] = test system: Rattus norvegicus; assay: Antihypertensive activity in rat spontaneous hypertensive model assessed as diastolic arterial blood pressure at 20 mg/kg, po measured at 1 hr by tail-cuff method (reference value: 146.2 +/- 13.19 mmHg); assay type: functional, Artery
[5] = test system: Rattus norvegicus; assay: Antihypertensive activity in rat spontaneous hypertensive model assessed as systolic arterial blood pressure at 20 mg/kg, po measured at 0.5 hrs by tail-cuff method (reference value: 178.5 +/- 10.13 mmHg); assay type: functional, Artery
[6] = test system: Rattus norvegicus; assay: Toxicity in rat spontaneous hypertensive model assessed as heart rate at 20 mg/kg, po measured at 0.5 hrs by tail-cuff method (reference value: 406.5 +/- 13.15 bpm); assay type: organism-based; parameters: dose 20 mg/kg, route oral; conditions: in vivo
[7] = test system: Rattus norvegicus; assay: Antihypertensive activity in rat spontaneous hypertensive model assessed as mean arterial blood pressure at 20 mg/kg, po measured at 1 hr by tail-cuff method (reference value: 158.9 +/- 13.65 mmHg); assay type: functional, Artery
[8] = test system: Rattus norvegicus; assay: Toxicity in rat spontaneous hypertensive model assessed as heart rate at 20 mg/kg, po measured at 4 hrs by tail-cuff method (reference value: 403.1 +/- 15.92 bpm); assay type: organism-based; parameters: dose 20 mg/kg, route oral; conditions: in vivo
[9] = test system: Rattus norvegicus; assay: Toxicity in rat spontaneous hypertensive model assessed as heart rate at 20 mg/kg, po measured at 1 hr by tail-cuff method (reference value: 403.9 +/- 12.41 bpm); assay type: organism-based; parameters: dose 20 mg/kg, route oral; conditions: in vivo
[10] = test system: Rattus norvegicus; assay: Antihypertensive activity in rat spontaneous hypertensive model assessed as mean arterial blood pressure at 20 mg/kg, po measured at 4 hrs by tail-cuff method (reference value: 154.4 +/- 20.1 mmHg); assay type: functional, Artery
[11] = test system: Rattus norvegicus; assay: Toxicity in rat spontaneous hypertensive model assessed as heart rate at 20 mg/kg, po measured at 6 hrs by tail-cuff method (reference value: 405.1 +/- 24 bpm); assay type: organism-based; parameters: dose 20 mg/kg, route oral; conditions: in vivo
[12] = test system: Rattus norvegicus; assay: Antihypertensive activity in rat spontaneous hypertensive model assessed as mean arterial blood pressure at 20 mg/kg, po measured at 8 hrs by tail-cuff method (reference value: 155.8 +/- 11.54 mmHg); assay type: functional, Artery
[13] = test system: Rattus norvegicus; assay: Antihypertensive activity in rat spontaneous hypertensive model assessed as diastolic arterial blood pressure at 20 mg/kg, po measured at 6 hrs by tail-cuff method (reference value: 141.2 +/- 7.34 mmHg); assay type: functional, Artery
[14] = test system: Rattus norvegicus; assay: Antihypertensive activity in rat spontaneous hypertensive model assessed as systolic arterial blood pressure at 20 mg/kg, po measured at 6 hrs by tail-cuff method (reference value: 176.7 +/- 15.21 mmHg); assay type: functional, Artery
[15] = test system: Rattus norvegicus; assay: Antihypertensive activity in rat spontaneous hypertensive model assessed as diastolic arterial blood pressure at 20 mg/kg, po measured at 0.5 hrs by tail-cuff method (reference value: 138.7 +/- 9.2 mmHg); assay type: functional, Artery
[16] = test system: Rattus norvegicus; assay: Toxicity in rat spontaneous hypertensive model assessed as heart rate at 20 mg/kg, po measured at 2 hrs by tail-cuff method (reference value: 399.5 +/- 19.68 bpm); assay type: organism-based; parameters: dose 20 mg/kg, route oral; conditions: in vivo
[17] = test system: Rattus norvegicus; assay: Antihypertensive activity in rat spontaneous hypertensive model assessed as diastolic arterial blood pressure at 20 mg/kg, po measured at 8 hrs by tail-cuff method (reference value: 135.3 +/- 8.21 mmHg); assay type: functional, Artery
[18] = test system: Rattus norvegicus; assay: Antihypertensive activity in rat spontaneous hypertensive model assessed as mean arterial blood pressure at 20 mg/kg, po measured at 2 hrs by tail-cuff method (reference value: 157.41 +/- 9.62 mmHg); assay type: functional, Artery
[19] = test system: Rattus norvegicus; assay: Antihypertensive activity in rat spontaneous hypertensive model assessed as systolic arterial blood pressure at 20 mg/kg, po measured at 1 hr by tail-cuff method (reference value: 181.2 +/- 16.37 mmHg); assay type: functional, Artery
[20] = test system: Rattus norvegicus; assay: Antihypertensive activity in rat spontaneous hypertensive model assessed as systolic arterial blood pressure at 20 mg/kg, po measured at 2 hrs by tail-cuff method (reference value: 172.6 +/- 17.3 mmHg); assay type: functional, Artery
[21] = test system: Rattus norvegicus; assay: Toxicity in rat spontaneous hypertensive model assessed as heart rate at 20 mg/kg, po measured at 8 hrs by tail-cuff method (reference value: 397.2 +/- 24.87 bpm); assay type: organism-based; parameters: dose 20 mg/kg, route oral; conditions: in vivo
[22] = test system: Rattus norvegicus; assay: Antihypertensive activity in rat spontaneous hypertensive model assessed as systolic arterial blood pressure at 20 mg/kg, po measured at 4 hrs by tail-cuff method (reference value: 172.9 +/- 10.21 mmHg); assay type: functional, Artery
[23] = test system: Rattus norvegicus; assay: Antihypertensive activity in rat spontaneous hypertensive model assessed as diastolic arterial blood pressure at 20 mg/kg, po measured at 4 hrs by tail-cuff method (reference value: 141.4 +/- 7.11 mmHg); assay type: functional, Artery
[24] = test system: Rattus norvegicus; assay: Antihypertensive activity in rat spontaneous hypertensive model assessed as mean arterial blood pressure at 20 mg/kg, po measured at 0.5 hrs by tail-cuff method (reference value: 156.2 +/- 7.21 mmHg); assay type: functional, Artery

Structure (SMILES): CC(C)NCC(O)COc1cccc2ccccc12 (centres undefined) [PROPRANOLOL]
- Activity [1]: 120.9 mmHg
- Activity [2]: 94.1 mmHg
- Activity [3]: 163.9 mmHg
- Activity [4]: 105.5 mmHg
- Activity [5]: 168.7 mmHg
- Activity [6]: 340 bpm
- Activity [7]: 122.6 mmHg
- Activity [8]: 349.6 bpm
- Activity [9]: 339.9 bpm
- Activity [10]: 108.3 mmHg
- Activity [11]: 360.1 bpm
- Activity [12]: 132.6 mmHg
- Activity [13]: 100.3 mmHg
- Activity [14]: 161 mmHg
- Activity [15]: 127.2 mmHg
- Activity [16]: 350.6 bpm
- Activity [17]: 116.9 mmHg
- Activity [18]: 116.8 mmHg
- Activity [19]: 156.8 mmHg
- Activity [20]: 160.6 mmHg
- Activity [21]: 362.3 bpm
- Activity [22]: 158.4 mmHg
- Activity [23]: 88.3 mmHg
- Activity [24]: 145 mmHg
